Experimental data published in patent US9566312B2, “Cyclic peptides and use as medicines” (priority 2012, dated 2017).
Where two headings read alike, the source gives them in different places. Starred links: 1 amine or outer side, 2 acyl side, 3 side chain; linkers in the order of their positions; H or OH if unused. Non-standard residues stand in square brackets, D forms with d. Residues, ends and D or L forms follow the SMILES beside them. X7 = C[C@H](COCCN1CCS(=O)(=O)CC1)[C@@H](C(=O)[*:2])N(C)[*:1]; X22 = C[C@H](CN1CCN(C2CCC2)CC1)[C@@H](C(=O)[*:2])N(C)[*:1]; X63 = C[C@H](CN1CCN(C2COC2)CC1)[C@@H](C(=O)[*:2])N(C)[*:1]; X79 = COCCN1CCN(CC[C@@H](C)[C@@H](C(=O)[*:2])N(C)[*:1])CC1; X19 = COCCN1CCN(C[C@H](C)[C@@H](C(=O)[*:2])N(C)[*:1])CC1; X8 = COCCN1CCN(C[C@@H](C)[C@@H](C(=O)[*:2])N(C)[*:1])CC1; X23 = COC1CN(C[C@@H](C)[C@@H](C(=O)[*:2])N(C)[*:1])C1; X18 = C[C@H](CCC(C)(C)O)[C@@H](C(=O)[*:2])N(C)[*:1]; X9 = C[C@@H](CN1CCOCC1)[C@@H](C(=O)[*:2])N(C)[*:1]; MeBmt = C/C=C/C[C@@H](C)[C@@H](O)[C@H](NC)C(=O)O; NMeL = CN[C@@H](CC(C)C)C(=O)O; NMeV = CN[C@H](C(=O)O)C(C)C; dNMeA = CN[C@H](C)C(=O)O; Abu = CC[C@H](N)C(=O)O

Experiments:
[1] = target: cyclophilin B (CypB) (Homo sapiens (Human), UniProt P23284); assay: Inhibitor binding to cyclophilin proteins by SPR, CypB; parameters: unit not given here; conditions: 1:1 binding model
Summary of the method: (§1)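 Running buffer: 10 mM HEPES pH 7.4, 150 mM NaCl, 0.05% P20, 3% DMSO, with compound present. Capture of avi-tagged mono-biotinylated cyclophilin; single-cycle series, 1 min contact, 10 min dissociation. Rates and affinity fitted to a 1:1 interaction model.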

[2] = target: cyclophilin A (CypA) (Homo sapiens (Human), UniProt P62937); assay: Inhibitor binding to cyclophilin proteins by SPR, CypA; parameters: unit not given here; conditions: 1:1 binding model;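 also: Single-cycle kinetics on a Biacore T200, compound injected at several concentrations for 1 min each at 50 µL/min, then 10 min dissociation, in HEPES pH 7.4 buffer with 3% DMSO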
[3] = target: organic anion transporting polypeptide 1B1 (OATP1B1) (Homo sapiens (Human), UniProt Q9Y6L6); assay: OATP assay in CHO-OATP1B1 cells;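 also: inhibition of probe substrate uptake into the cells, ten minutes exposure, accumulated substrate read by fluorescence once cells were lysed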
[4] = target: CypF (Homo sapiens (Human), UniProt P30405); assay: Inhibitor binding to cyclophilin proteins by SPR, CypF; conditions: 1:1 binding model
Summary of the method: as §1

[5] = target: Human MRP2 (Homo sapiens (Human), UniProt Q92887); assay: MRP2 transporter vesicle assay; format: in vitro ADME
Experimental: Method 4: Measuring Hepatic Transporter Interactions […] […] MRP2 Assay: Human MRP2 inhibition was tested using a BD Gentest Transporter Vesicle Assay Kit. Inside-out vesicles were prepared from insect Sf9 cells infected with baculovirus expressing hMRP2. […] The percent remaining of ATP dependent uptake activity was calculated as uptake activity in the presence of inhibitor divided by the uptake activity in the absence of inhibitor.

[6] = target: CYP3A4 (Homo sapiens (Human), UniProt P08684); assay: Time-dependent inhibition of CYP3A4;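 also: Two-step in vitro assay, kobs derived from residual CYP3A4 activity versus preincubation time per concentration, then kinact and KI by nonlinear fit of kobs against concentration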
Experimental: Method 5: Measuring Time-Dependent Inhibition of CYP3A4
The CYP3A4 time dependent inhibition potential of various inhibitors was determined by a two step in vitro assay. […] The inactivation rate constant (kobs) was obtained by plotting the activity remaining over pre-incubation time for each concentration of compound. The maximal inactivation rate (kinact) and the inactivation potency (KI) were calculated by non linear regression analysis of the inactivation rate constant (kobs) versus compound concentrations [I] curve according to the equation kobs=[kinact·[I]]/[KI+[I]]

[7] = tested on: peripheral blood mononuclear cells (PBMC); assay: Anti-proliferative or immunosuppressive activity, BrdU incorporation in PHA-stimulated PBMC; format: cell-based; conditions: PHA 3 μg/ml, 60 hour compound treatment; read-out: EMV PBMC IC50
Summary of the method: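 Fresh PBMCs from two donors, 30,000 per well in X-VIVO 15 medium, stimulated with 3 μg/ml PHA to drive T-cell proliferation. Proliferation measured as BrdU incorporation into DNA by BrdU ELISA.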

[8] = tested on: genotype 1b subgenomic HCV replicon in Huh7.5 cells; format: cell-based, hepatitis C virus; conditions: read-out: RPLN-1b IC50
Summary of the method: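 Huh7.5 cells carrying genotype 1b subgenomic HCV replicon with renilla luciferase-neomycin reporter, in phenol red-free DMEM without G418. Luciferase measured after 72 h compound exposure relative to DMSO-treated cells; cytotoxicity (CC50) by Cell Titer-Glo.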

[9] = genotype 1b replicon, 72 h incubation

Sequence of organic anion transporting polypeptide 1B1 (OATP1B1) (Q9Y6L6 whole entry): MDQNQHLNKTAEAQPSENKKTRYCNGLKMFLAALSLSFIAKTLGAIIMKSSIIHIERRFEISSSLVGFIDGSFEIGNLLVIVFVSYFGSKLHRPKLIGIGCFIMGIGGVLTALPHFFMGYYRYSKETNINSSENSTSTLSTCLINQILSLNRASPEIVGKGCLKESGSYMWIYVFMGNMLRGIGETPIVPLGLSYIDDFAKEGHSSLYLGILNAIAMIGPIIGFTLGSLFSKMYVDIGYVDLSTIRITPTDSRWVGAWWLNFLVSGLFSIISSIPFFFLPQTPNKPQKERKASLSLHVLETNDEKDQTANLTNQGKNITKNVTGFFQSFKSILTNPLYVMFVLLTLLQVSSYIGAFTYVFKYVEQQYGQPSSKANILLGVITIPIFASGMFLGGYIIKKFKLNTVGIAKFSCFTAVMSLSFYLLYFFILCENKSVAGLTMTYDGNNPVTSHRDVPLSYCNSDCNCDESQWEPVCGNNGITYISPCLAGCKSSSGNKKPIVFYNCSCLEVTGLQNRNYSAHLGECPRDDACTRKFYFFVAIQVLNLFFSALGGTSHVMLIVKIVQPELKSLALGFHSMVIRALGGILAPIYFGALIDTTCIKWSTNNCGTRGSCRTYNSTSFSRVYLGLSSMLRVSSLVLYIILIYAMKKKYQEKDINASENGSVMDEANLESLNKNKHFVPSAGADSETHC
Sequence of cyclophilin B (CypB) (P23284 34-216): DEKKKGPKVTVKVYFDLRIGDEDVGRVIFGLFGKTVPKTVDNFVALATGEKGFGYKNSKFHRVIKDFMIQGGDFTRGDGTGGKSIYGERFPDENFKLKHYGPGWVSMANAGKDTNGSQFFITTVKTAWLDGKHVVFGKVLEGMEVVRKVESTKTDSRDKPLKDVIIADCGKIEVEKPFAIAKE
Sequence of cyclophilin A (CypA) (P62937 whole entry): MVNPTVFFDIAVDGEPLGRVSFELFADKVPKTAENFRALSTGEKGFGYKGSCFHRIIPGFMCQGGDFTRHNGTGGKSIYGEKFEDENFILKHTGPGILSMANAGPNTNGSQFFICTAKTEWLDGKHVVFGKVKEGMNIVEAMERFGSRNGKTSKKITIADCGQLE
Sequence of CYP3A4 (P08684 whole entry): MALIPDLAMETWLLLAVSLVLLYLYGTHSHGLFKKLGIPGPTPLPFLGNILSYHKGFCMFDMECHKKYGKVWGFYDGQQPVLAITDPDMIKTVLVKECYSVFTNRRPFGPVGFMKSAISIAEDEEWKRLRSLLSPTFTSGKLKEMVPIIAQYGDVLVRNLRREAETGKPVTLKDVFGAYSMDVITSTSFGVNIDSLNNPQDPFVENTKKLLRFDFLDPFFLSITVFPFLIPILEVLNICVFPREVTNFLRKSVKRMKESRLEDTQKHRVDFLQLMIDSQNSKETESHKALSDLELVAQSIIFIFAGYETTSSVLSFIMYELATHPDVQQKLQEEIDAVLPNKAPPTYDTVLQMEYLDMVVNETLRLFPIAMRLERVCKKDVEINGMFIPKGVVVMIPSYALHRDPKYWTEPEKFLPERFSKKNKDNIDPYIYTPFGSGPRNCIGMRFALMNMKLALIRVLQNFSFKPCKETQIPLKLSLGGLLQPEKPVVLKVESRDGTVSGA
Sequence of CypF (P30405 30-207): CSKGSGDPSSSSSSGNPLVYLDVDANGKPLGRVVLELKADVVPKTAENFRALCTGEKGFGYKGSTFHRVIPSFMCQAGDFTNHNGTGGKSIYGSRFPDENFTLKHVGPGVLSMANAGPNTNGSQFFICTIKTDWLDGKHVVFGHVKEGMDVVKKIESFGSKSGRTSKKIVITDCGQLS
Sequence of Human MRP2 (Q92887 whole entry): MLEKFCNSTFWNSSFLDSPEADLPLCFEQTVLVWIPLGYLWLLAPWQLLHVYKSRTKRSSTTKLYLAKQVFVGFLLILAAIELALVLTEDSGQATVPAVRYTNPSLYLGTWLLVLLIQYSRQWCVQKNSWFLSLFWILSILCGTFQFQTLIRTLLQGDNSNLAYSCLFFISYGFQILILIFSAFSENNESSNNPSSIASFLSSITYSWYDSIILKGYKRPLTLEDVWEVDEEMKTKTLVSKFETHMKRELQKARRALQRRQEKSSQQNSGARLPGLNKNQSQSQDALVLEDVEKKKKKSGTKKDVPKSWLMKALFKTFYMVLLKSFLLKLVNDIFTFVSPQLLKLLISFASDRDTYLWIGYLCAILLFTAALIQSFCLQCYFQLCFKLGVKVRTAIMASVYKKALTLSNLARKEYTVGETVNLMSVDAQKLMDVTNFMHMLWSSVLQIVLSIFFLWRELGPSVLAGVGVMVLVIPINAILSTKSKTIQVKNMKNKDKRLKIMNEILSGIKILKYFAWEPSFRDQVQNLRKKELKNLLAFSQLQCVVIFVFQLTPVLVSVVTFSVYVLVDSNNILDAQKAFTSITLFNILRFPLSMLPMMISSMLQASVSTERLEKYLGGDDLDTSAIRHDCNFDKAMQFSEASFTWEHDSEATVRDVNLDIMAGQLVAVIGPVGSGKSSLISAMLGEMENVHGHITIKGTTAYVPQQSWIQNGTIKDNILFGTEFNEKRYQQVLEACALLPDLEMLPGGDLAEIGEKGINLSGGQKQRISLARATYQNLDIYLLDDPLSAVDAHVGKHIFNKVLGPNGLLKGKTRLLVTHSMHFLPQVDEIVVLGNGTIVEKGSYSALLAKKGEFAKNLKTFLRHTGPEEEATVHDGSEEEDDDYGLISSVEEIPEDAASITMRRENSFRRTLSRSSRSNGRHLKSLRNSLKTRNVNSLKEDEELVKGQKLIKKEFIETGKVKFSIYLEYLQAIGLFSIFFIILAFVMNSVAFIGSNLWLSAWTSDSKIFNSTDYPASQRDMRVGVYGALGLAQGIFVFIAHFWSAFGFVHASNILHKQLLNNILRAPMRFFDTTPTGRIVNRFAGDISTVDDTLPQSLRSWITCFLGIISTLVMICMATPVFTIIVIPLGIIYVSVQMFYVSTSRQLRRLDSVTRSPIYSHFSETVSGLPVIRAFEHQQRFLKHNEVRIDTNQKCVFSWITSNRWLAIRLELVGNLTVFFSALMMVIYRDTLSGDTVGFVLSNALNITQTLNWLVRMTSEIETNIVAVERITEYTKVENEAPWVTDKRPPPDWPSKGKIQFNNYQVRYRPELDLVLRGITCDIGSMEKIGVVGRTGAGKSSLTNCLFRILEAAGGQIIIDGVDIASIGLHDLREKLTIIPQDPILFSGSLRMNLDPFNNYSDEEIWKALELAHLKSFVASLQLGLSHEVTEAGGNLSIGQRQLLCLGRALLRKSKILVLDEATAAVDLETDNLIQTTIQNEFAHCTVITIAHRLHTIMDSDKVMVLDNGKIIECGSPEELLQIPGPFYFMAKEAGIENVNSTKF

| Structure (SMILES) | CypB Kd [1] | CypA Kd [2] | IC50 [3] | CypF Kd [4] | IC50 [5] | Ki [6] | IC50 [7] | IC50 [8, 9] | IC50 [8] | KI (inactivation) [6] |
| --- | --- | --- | --- | --- | --- | --- | --- | --- | --- | --- |
| C/C=C/C[C@@H](C)[C@@H](O)[C@H]1C(=O)N[C@@H](CC)C(=O)N(C)[C@H](C)C(=O)N(C)[C@@H]([C@H](C)COCCN2CCS(=O)(=O)CC2)C(=O)N[C@@H](C(C)C)C(=O)N(C)[C@@H](CC(C)C)C(=O)N[C@@H](C)C(=O)N[C@H](C)C(=O)N(C)[C@@H](CC(C)C)C(=O)N(C)[C@@H](CC(C)C)C(=O)N(C)[C@@H](C(C)C)C(=O)N1C [Compound 2.8.2] (cyclo(A[dA][NMeL][NMeL][NMeV][MeBmt][Abu][dNMeA][X7]V[NMeL])) | 0.6 | 1.6 | 3000 nM | 0.6 nM | 28000 nM |  |  |  |  |  |
| C/C=C/C[C@@H](C)[C@@H](O)[C@H]1C(=O)N[C@@H](CC)C(=O)N(C)[C@H](C)C(=O)N(C)[C@@H]([C@@H](C)CN2CCOCC2)C(=O)N[C@@H](C(C)C)C(=O)N(C)[C@@H](CC(C)C)C(=O)N[C@@H](C)C(=O)N[C@H](C)C(=O)N(C)[C@@H](CC(C)C)C(=O)N(C)[C@@H](CC(C)C)C(=O)N(C)[C@@H](C(C)C)C(=O)N1C [Compound 2.17.1, 3-[D-Ala]-4[(2S,3S)-2-Amino-3-methyl-4-morpholin-4-yl-butanoyl]-cyclosporin] (cyclo(A[dA][NMeL][NMeL][NMeV][MeBmt][Abu][dNMeA][X9]V[NMeL])) | 0.4 | 0.6 | 3600 nM | 0.3 nM |  | > 50000 nM | 18000 nM | 29 nM |  |  |
| C/C=C/C[C@@H](C)[C@@H](O)[C@H]1C(=O)N[C@@H](CC)C(=O)N(C)[C@H](C)C(=O)N(C)[C@@H]([C@@H](C)CN2CCN(CCOC)CC2)C(=O)N[C@@H](C(C)C)C(=O)N(C)[C@@H](CC(C)C)C(=O)N[C@@H](C)C(=O)N[C@H](C)C(=O)N(C)[C@@H](CC(C)C)C(=O)N(C)[C@@H](CC(C)C)C(=O)N(C)[C@@H](C(C)C)C(=O)N1C [Compound 2.17.4, 3-[D-Ala]-4[(2S,3S)-2-Amino-4-[4-(2-methoxy-ethyl)-piperazin-1-yl]-3-methyl-butanoyl]-cyclosporin] (cyclo(A[dA][NMeL][NMeL][NMeV][MeBmt][Abu][dNMeA][X19]V[NMeL])) | 0.5 | 0.6 | 3200 nM | 0.3 nM |  | > 50000 nM | 2700 nM | 31 nM |  |  |
| C/C=C/C[C@@H](C)[C@@H](O)[C@H]1C(=O)N[C@@H](CC)C(=O)N(C)[C@H](C)C(=O)N(C)[C@@H]([C@H](C)CCC(C)(C)O)C(=O)N[C@@H](C(C)C)C(=O)N(C)[C@@H](CC(C)C)C(=O)N[C@@H](C)C(=O)N[C@H](C)C(=O)N(C)[C@@H](CC(C)C)C(=O)N(C)[C@@H](CC(C)C)C(=O)N(C)[C@@H](C(C)C)C(=O)N1C [Compound 2.12, 3-[D-Ala]-4-[(2S,3R)-6-hydroxy-3,6-dimethyl-2-(methylamino)heptanoyl]-cyclosporin] (cyclo(A[dA][NMeL][NMeL][NMeV][MeBmt][Abu][dNMeA][X18]V[NMeL])) | 1.1 | 2.1 | 2200 nM | 1.1 nM |  | > 50000 nM | 7100 nM |  | 80 nM |  |
| C/C=C/C[C@@H](C)[C@@H](O)[C@H]1C(=O)N[C@@H](CC)C(=O)N(C)[C@H](C)C(=O)N(C)[C@@H]([C@H](C)CN2CC(OC)C2)C(=O)N[C@@H](C(C)C)C(=O)N(C)[C@@H](CC(C)C)C(=O)N[C@@H](C)C(=O)N[C@H](C)C(=O)N(C)[C@@H](CC(C)C)C(=O)N(C)[C@@H](CC(C)C)C(=O)N(C)[C@@H](C(C)C)C(=O)N1C [Compound 2.5.17, 3-[D-Ala]-4-[(2S,3R)-4-(3-methoxyazetidin-1-yl)-3-methyl-2-(methylamino)butanoyl]-cyclosporin] (cyclo(A[dA][NMeL][NMeL][NMeV][MeBmt][Abu][dNMeA][X23]V[NMeL])) | 0.9 | 1.9 | 4200 nM | 1 nM |  | > 50000 nM | 17600 nM | 44 nM |  |  |
| C/C=C/C[C@@H](C)[C@@H](O)[C@H]1C(=O)N[C@@H](CC)C(=O)N(C)[C@H](C)C(=O)N(C)[C@@H]([C@H](C)CN2CCN(C3COC3)CC2)C(=O)N[C@@H](C(C)C)C(=O)N(C)[C@@H](CC(C)C)C(=O)N[C@@H](C)C(=O)N[C@H](C)C(=O)N(C)[C@@H](CC(C)C)C(=O)N(C)[C@@H](CC(C)C)C(=O)N(C)[C@@H](C(C)C)C(=O)N1C [Compound 2.5.11] (cyclo(A[dA][NMeL][NMeL][NMeV][MeBmt][Abu][dNMeA][X63]V[NMeL])) | 1.2 | 1.6 | 1170 nM | 1 nM |  | > 50000 nM | 13900 nM | 50 nM |  |  |
| C/C=C/C[C@@H](C)[C@@H](O)[C@H]1C(=O)N[C@@H](CC)C(=O)N(C)[C@H](C)C(=O)N(C)[C@@H]([C@H](C)CO[C@H]2CCOC2)C(=O)N[C@@H](C(C)C)C(=O)N(C)[C@@H](CC(C)C)C(=O)N[C@@H](C)C(=O)N[C@H](C)C(=O)N(C)[C@@H](CC(C)C)C(=O)N(C)[C@@H](CC(C)C)C(=O)N(C)[C@@H](C(C)C)C(=O)N1C (stereo in doubt) [Compound 2.16] | 0.5 | 1.0 | 1900 nM | 0.4 nM |  | > 50000 nM | 13700 nM |  | 25 nM |  |
| C/C=C/C[C@@H](C)[C@@H](O)[C@H]1C(=O)N[C@@H](CC)C(=O)N(C)[C@H](C)C(=O)N(C)[C@@H]([C@H](C)CN2CCN(C3CCC3)CC2)C(=O)N[C@@H](C(C)C)C(=O)N(C)[C@@H](CC(C)C)C(=O)N[C@@H](C)C(=O)N[C@H](C)C(=O)N(C)[C@@H](CC(C)C)C(=O)N(C)[C@@H](CC(C)C)C(=O)N(C)[C@@H](C(C)C)C(=O)N1C [Compound 2.5.14, 3-[D-Ala]-4[(2S,3R)-2-Amino-4-(4-cyclobutyl-piperazin-1-yl)-butanoyl]-cyclosporin] (cyclo(A[dA][NMeL][NMeL][NMeV][MeBmt][Abu][dNMeA][X22]V[NMeL])) | 0.7 | 1.0 | 5200 nM | 0.5 nM |  | > 50000 nM | 8100 nM | 32 nM |  |  |
| C/C=C/C[C@@H](C)[C@@H](O)[C@H]1C(=O)N[C@@H](CC)C(=O)N(C)[C@H](C)C(=O)N(C)[C@@H]([C@H](C)CCN2CCN(CCOC)CC2)C(=O)N[C@@H](C(C)C)C(=O)N(C)[C@@H](CC(C)C)C(=O)N[C@@H](C)C(=O)N[C@H](C)C(=O)N(C)[C@@H](CC(C)C)C(=O)N(C)[C@@H](CC(C)C)C(=O)N(C)[C@@H](C(C)C)C(=O)N1C [Compound 2.18.3, 3-[D-Ala]-4-[(2S,3R)-5-(4-(2-methoxyethyl)piperazin-1-yl)-3-methyl-2-(methylamino)pentanoyl]-cyclosporin] (cyclo(A[dA][NMeL][NMeL][NMeV][MeBmt][Abu][dNMeA][X79]V[NMeL])) | 0.6 | 0.9 | 9100 nM | 0.5 nM |  | > 50000 nM | 11100 nM | 73 nM |  |  |
| C/C=C/C[C@@H](C)[C@@H](O)[C@H]1C(=O)N[C@@H](CC)C(=O)N(C)[C@H](C)C(=O)N(C)[C@@H]([C@H](C)CN2CCN(CCOC)CC2)C(=O)N[C@@H](C(C)C)C(=O)N(C)[C@@H](CC(C)C)C(=O)N[C@@H](C)C(=O)N[C@H](C)C(=O)N(C)[C@@H](CC(C)C)C(=O)N(C)[C@@H](CC(C)C)C(=O)N(C)[C@@H](C(C)C)C(=O)N1C [Compound 2.5.10, 3-[D-Ala]-4[(2S,3R)-2-Amino-4-[4-(2-methoxy-ethyl)-piperazin-1-yl]-3-methyl-butanoyl]-cyclosporin] (cyclo([MeBmt][Abu][dNMeA][X8]V[NMeL]A[dA][NMeL][NMeL][NMeV])) | 1.2 | 1.2 | 6100 nM | 0.9 nM |  |  | 16800 nM |  | 39 nM | > 50000 nM |
